By AC50 is commonly meant the concentration giving half of the maximal activity seen. Broadly, the IC50 is the concentration needed to halve the response being measured. One may read the CC50 as the concentration at which the toxic effect on the cells reaches its halfway point. The term EC50 denotes the midpoint of the concentration-response curve.

The source of these data is ChEMBL document CHEMBL1201862, “PubChem BioAssay data set” (2004).

Molecules are shown by their SMILES. Active and inactive are the calls of the source.

Assay [1] can be described thus: viability loss in HepG2 hepatoma cells – cell-based, ATP luminescence, cherry-pick, activator set 2, cytotoxicity control, dose response (AID 1053143). Type of assay: functional.
For assay [2], the target named is Mitogen-activated protein kinase 10 (Homo sapiens, UniProt P53779). As to the kind of experiment: Dose response biochemical screening assay for inhibitors of c-Jun N-Terminal Kinase 3 (JNK3). [Related pubchem assays: 746 ].
Assay [3] can be described thus: viability loss in THP-1 monocytes – THP-1 cells, cytotoxicity control for Vif-APOBEC3G degradation inhibitor project, dose response (AID 1117359). It counts as functional. As to conditions: THP-1.
Assay [4] is described as follows: viability of uninfected HEp-2 cells – cell-based, HTS, cytotoxicity control for RSV inhibitor project, dose response (AID 2410). It counts as functional. As to conditions: human respiratory syncytial virus.
Assay [5] in a line: Dd2 malaria parasite growth inhibition potency – SYBR Green, dry powder samples, dose response (AID 1159566).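 Also: potency for growth inhibition with lower SYBR green DNA signal.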 It counts as functional, cell-based.
A short description of assay [6]: P. falciparum Dd2 growth inhibitors, dose response, SYBR Green, cherry-picked samples (AID 1159567). It counts as functional, cell-based.
Assay [7] can be described thus: growth inhibition of yeast DHODH-expressing 3D7 parasites – SYBR Green, dry powder samples, dose response (AID 1159570).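 Also: parasite growth measured after 72 hours of compound exposure.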 It counts as functional, cell-based.
The nature of assay [8]: growth inhibition of PfATP4-mutant resistant parasites – NITD609-resistant line, SYBR Green, dry powder, dose response (AID 1159571).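 Also: parasites synchronized at ring stage by sorbitol before testing.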 Type of assay: functional, cell-based.
Assay [9] is described as follows: HIV-1 AD8 envelope cell-cell fusion blockers – cherry-pick, dose response (AID 652062).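 Also: luciferase signal from cell-cell fusion driven by HIV-1 clade B AD8 Env; potency is for inhibitors of fusion seen as a drop in luminescence.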 Type of assay: functional, cell-based.
In assay [10] the target is T1, Short transient receptor potential channel 4 (Mus musculus, UniProt Q9QUQ5).
T1 sequence (Q9QUQ5 whole entry): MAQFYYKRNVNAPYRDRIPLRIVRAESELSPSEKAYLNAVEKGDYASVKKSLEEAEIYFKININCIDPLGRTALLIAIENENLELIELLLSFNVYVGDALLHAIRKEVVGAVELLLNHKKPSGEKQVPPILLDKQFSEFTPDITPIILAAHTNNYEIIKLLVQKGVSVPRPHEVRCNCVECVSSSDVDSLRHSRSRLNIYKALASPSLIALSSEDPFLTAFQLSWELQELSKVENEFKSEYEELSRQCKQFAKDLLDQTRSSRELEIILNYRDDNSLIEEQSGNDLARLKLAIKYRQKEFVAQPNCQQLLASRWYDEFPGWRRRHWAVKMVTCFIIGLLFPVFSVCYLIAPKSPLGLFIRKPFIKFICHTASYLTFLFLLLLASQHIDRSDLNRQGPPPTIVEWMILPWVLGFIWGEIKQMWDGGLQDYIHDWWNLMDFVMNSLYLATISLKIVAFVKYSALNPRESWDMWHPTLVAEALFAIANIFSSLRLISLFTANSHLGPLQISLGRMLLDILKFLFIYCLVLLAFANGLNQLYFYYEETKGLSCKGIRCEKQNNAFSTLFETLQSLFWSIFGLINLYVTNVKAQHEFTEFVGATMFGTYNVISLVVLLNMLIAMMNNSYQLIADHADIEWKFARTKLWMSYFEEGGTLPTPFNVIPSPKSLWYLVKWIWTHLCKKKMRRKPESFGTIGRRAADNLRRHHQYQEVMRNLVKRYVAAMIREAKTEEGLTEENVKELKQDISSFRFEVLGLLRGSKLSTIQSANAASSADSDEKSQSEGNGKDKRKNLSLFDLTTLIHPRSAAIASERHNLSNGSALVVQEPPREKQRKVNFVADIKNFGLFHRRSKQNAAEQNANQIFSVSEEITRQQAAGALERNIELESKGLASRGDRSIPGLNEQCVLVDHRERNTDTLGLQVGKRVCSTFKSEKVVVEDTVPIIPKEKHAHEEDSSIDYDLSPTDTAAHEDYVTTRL
As to the kind of experiment: calcium entry via TRPC4 opening agents – cell-based, HEK293 TRPC4/mu-opioid, Fluo-4 calcium, dose response (AID 434937). It counts as functional.

Assay [11] is described as follows: viability loss in CEM21 cells – cell-based, CellTiter-Glo luminescence, cherry-picked, cytotoxicity control for viral fusion inhibitor project, dose response (AID 652042).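 Also: potency for signal decrease meaning cytotoxicity.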 It counts as functional.
Assay [12] in a line: off-target signal loss in HeLa-CEM21 co-culture – HeLa F-luc CTL cells, cherry-picked, counter-screen for HIV-1 Env fusion inhibitor project, dose response (AID 652040).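 Also: potency for signal decrease marking cytotoxic or nonspecific inhibition.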 It counts as functional, cell-based.
Assay [13] in a line: blockers of HIV-1 envelope-mediated cell-cell fusion – cherry-pick, dose response (AID 652057). Type of assay: functional, cell-based.
Assay [14] in a line: blockers of HIV-1 ZM109 envelope-driven cell-cell fusion – HeLa effector, CEM target cells, luciferase, cherry-pick, dose response (AID 652058).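 Also: luciferase signal from HIV-1 Env mediated cell-cell fusion of effector and target cells.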 Type of assay: functional, cell-based.
Assay [15] can be described thus: NIH-3T3 fibroblast cytotoxicity, dose response, cytotoxicity control, cell-based, fluorescence, Alamar Blue, secondary assay (AID 2327).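 Also: NIH-3T3 mouse fibroblasts cultured with fluconazole at 8 µg/mL.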 It counts as functional. (Alamar Blue is a resazurin reagent that responds to reducing activity.)
Another assay concerns INS1. As to the kind of experiment: INS-1E survival protection against cytokine death – cell-based, luminescence, retest, dose response (AID 449756).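 Also: cell death triggered by IL-1 beta plus TNF-alpha plus IFN-gamma mixture; protective hits raise ATP signal compared with cytokine alone wells.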 The settings on record: Rattus norvegicus. Type of assay: functional.
Assay [16] is described as follows: Trypanosoma cruzi growth suppression in host cells – NIH3T3 host cells, beta-gal luminescence, confirmation (AID 2044).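 Also: intracellular parasites grown in NIH/3T3 mouse fibroblasts as host cells; luminescent beta-galactosidase reporter signal from transgenic T. cruzi replicating inside host cells; inhibitors lower the luminescence signal.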 It counts as functional, cell-based.
Assay [17] can be described thus: fluconazole-exposed Candida albicans growth modulators – fluorescence, retest, confirmation (AID 2467). Type of assay: functional, cell-based.
Assay [18] can be described thus: NIH3T3 cell viability loss – ATP luminescence, mouse fibroblasts, counter-screen, dose response (AID 2010).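 Also: cells exposed to compound for about 90 hours before reading.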 Type of assay: functional, cell-based. (In general: The purpose of a counterscreen is to sort out artefacts and off-target activity.)
Assay [19] has as its target T2, Rac GTPase-activating protein 1 (Homo sapiens, UniProt Q9H0H5).
T2 sequence (Q9H0H5 whole entry): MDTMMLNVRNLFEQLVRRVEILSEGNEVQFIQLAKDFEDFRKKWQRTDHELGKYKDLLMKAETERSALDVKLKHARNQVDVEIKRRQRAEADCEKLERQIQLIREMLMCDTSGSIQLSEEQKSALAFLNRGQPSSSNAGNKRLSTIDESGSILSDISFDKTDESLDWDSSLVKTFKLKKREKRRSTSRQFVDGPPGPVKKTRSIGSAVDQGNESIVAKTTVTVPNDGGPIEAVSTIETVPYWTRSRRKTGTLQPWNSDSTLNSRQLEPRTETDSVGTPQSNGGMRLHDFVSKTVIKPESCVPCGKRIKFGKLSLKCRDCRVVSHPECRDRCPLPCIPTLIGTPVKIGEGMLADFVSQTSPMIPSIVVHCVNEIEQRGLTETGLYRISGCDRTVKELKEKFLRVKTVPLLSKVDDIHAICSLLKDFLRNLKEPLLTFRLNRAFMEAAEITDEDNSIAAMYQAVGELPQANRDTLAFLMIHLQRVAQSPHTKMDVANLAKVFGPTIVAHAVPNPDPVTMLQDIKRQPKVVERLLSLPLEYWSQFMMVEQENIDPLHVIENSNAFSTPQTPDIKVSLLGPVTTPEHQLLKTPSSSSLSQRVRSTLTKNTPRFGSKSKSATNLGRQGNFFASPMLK
As to the kind of experiment: blockers of MgcRacGAP-driven Rac1 GTP hydrolysis – biochemical, ADP Hunter fluorescence, primary and confirmatory, confirmation (AID 624330). Type of assay: functional.

In assay [20] the target is T3, Mannose-6-phosphate isomerase (Homo sapiens, UniProt P34949).
T3 sequence (P34949 whole entry): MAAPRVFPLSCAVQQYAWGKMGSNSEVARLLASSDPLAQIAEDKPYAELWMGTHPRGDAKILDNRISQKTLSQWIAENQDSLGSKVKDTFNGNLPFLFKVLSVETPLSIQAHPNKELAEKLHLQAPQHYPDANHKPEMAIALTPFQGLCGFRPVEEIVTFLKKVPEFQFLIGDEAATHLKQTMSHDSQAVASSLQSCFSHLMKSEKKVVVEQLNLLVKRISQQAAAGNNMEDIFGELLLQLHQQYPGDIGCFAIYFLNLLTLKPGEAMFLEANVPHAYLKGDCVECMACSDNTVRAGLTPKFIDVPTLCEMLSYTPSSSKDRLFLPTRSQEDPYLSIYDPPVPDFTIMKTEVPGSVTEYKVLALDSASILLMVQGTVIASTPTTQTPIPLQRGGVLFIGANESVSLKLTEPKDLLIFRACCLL
Put plainly: MPI inhibition at elevated mannose 6-phosphate – biochemical, fluorescence intensity, high mannose 6-phosphate, primary screen (AID 1220).

The nature of assay [21]: OVCAR8 cell viability loss – plate reader, dry powder samples, PAX8 project, dose response (AID 743197). It counts as functional, cell-based. As to conditions: OVCAR-8.
A further assay has as its target Paired box protein Pax-8 (Homo sapiens, UniProt Q06710). Put plainly: PAX8 transcriptional activity inhibition in RMG-I – RMG-I cells, luciferase, cherry-pick, dose response (AID 687027).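 Also: luciferase reporter driven by Pax8 target thyroperoxidase promoter measured by SteadyGlo luminescence.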 It counts as functional, cell-based.

Sequence of Mitogen-activated protein kinase 10 (P53779 whole entry): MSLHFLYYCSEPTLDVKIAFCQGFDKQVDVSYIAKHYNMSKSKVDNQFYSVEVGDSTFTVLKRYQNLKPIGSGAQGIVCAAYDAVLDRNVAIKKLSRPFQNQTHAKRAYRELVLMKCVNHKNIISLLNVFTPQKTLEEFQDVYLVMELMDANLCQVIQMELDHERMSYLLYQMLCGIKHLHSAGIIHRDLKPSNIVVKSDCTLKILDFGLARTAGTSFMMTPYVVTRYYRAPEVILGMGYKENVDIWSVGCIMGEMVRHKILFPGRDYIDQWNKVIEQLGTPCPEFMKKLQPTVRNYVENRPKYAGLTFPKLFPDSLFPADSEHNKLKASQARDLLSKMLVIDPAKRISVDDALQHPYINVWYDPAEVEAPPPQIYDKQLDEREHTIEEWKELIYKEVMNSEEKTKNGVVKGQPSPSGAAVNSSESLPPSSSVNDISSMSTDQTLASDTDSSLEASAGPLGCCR
Sequence of Paired box protein Pax-8 (Q06710 whole entry): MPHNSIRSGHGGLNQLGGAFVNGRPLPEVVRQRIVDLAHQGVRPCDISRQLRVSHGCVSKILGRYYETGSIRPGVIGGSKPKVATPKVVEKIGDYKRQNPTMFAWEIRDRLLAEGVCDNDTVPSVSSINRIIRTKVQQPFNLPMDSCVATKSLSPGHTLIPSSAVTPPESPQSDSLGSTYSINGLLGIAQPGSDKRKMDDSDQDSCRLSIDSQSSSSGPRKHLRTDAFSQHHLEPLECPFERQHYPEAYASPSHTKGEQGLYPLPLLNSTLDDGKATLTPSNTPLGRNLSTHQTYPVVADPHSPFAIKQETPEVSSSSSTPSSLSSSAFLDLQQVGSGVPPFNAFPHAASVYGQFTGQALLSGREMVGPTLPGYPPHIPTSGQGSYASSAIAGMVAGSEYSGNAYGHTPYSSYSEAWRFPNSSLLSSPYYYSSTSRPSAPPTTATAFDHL

With `Oc1cc(-c2ccccc2)nc2nc3ccccc3n12`, the concentration at half-maximal activity (AC50) in [1] was 26 µM (active). Further, in [2], the IC50 is recorded as > 31 µM (not active).

For `COc1ccc(/C=C/CN2CCN(Cc3ccccc3)C(CCO)C2)cc1` (stereo unspecified), in assay [3], the half-maximal cytotoxic concentration (CC50) was > 40 µM (active).

On to `COC(=O)c1sccc1NC(=O)CN1CCN(c2ccc(F)cc2)CC1`, for which the CC50 in assay [4] is 22.2 µM (active). Further, the IC50 in [2] is given as 15.6 µM (not active).

Consider `CCOC(=O)c1ccc(Cn2cnc3ccccc3c2=O)cc1`, for which the IC50 in [2] was 12.3 µM (not active).

For the molecule `O=C1CCCc2nn(-c3ccccc3)c(-c3ccncc3)c21`, the IC50 in assay [2] is given as 42.3 µM (not active).

Turning to `COc1ccc2c3c([nH]c2c1)[C@H](CO)N(C(=O)C1CCCCC1)CC31CCN(Cc2nccs2)CC1`, the concentration at half-maximal activity (AC50) in [5] is 183 nM (active); in assay [6], 833 nM (active); in [7], 158 nM (active); in assay [8], 198 nM (active).

As for `COc1cc(C)c(CNCCc2c[nH]c3ccccc23)cc1C`, the AC50 in assay [9] was 6.52 µM (active); in assay [11], 22.9 µM (active); in assay [12], 3.7 µM (active); in assay [13], 1.51 µM (active); in assay [14], 482 nM (active). Also, the 50% effective concentration (EC50) in assay [10] was 2.66 µM (active).

As to `CCN1/C(=C/c2cccc[n+]2C)Sc2ccc(OC)cc21`, the EC50 in assay [15] was > 150 µM (inactive); in assay [16], < 100 nM (active); in the assay “cells”, 84 nM (active); in [17], 961 nM (active); in assay [18] it was > 60 µM (not active). In the assay on INS1, the half-maximal activity concentration (AC50) was 1.65 µM (active).

In the case of `CCCn1ncc(CN2CCCC(C(=O)c3cccc(OC)c3)C2)c1C` (stereo unspecified), the concentration for a half-maximal effect (EC50) in assay [16] was < 100 nM (active); in “cells”, 16 nM (active); in assay [18] it was 26.4 µM (active).

`CN(CCOc1ccc(Br)cc1)CC(O)c1ccccc1` (stereo unspecified): the EC50 in [16] was < 100 nM (active); in [10], 1.33 µM (active); in the assay “cells” it was 269 nM (active); in [18], > 60 µM (not active).

With `CCOC(=O)c1sc(/N=C/c2c(O)ccc3ccccc23)cc1C`, the 50% inhibitory concentration (IC50) in assay [19] is 139 µM (active); in assay [20], > 50 µM (not active).

On to `O=C(C[C@@H]1C[C@@H]2c3cc(NS(=O)(=O)c4ccc(F)cc4)ccc3O[C@@H]2[C@@H](CO)O1)NCc1ccc(-c2ccccc2)cc1`, for which the AC50 is > 70 µM (inactive) in assay [21] and 4.41 µM (active) at Paired box protein Pax-8.

Consider `C=CCN1C(=O)c2ccc(C(=O)N3CCN(c4ccccc4OC)CC3)cc2C1=O`, for which the half-maximal cytotoxic concentration (CC50) in assay [3] was > 40 µM (active).

For the molecule `O=[N+]([O-])c1ccc2c(c1NCCO)=NC1(CCCCC1)[N+]=2[O-]`, the half-inhibitory concentration (IC50) in assay [20] is recorded as > 50 µM (not active).
